From ChEMBL document CHEMBL1201862, “PubChem BioAssay data set” (2004)
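In this assay, cells in 96-well plates receive the compound at five concentrations for 48 hours. Endpoints are linearly interpolated between the surrounding concentrations. Abbreviation: GI50, concentration required for 50% inhibition of growth.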 Active and inactive are the calls of the source. No stated cut-off is given here; in the data, active = GI50 up to about 1.1 µM and inactive = higher.

Legend:
Test in all cases: NCI-60 cell line screen, 48 h
A498 = tested on: A498
CCRF-CEM = tested on: CCRF-CEM
COLO 205 = tested on: COLO 205
EKVX = tested on: EKVX
HL-60 = tested on: HL-60
K562 = tested on: K562
KM12 = tested on: KM12
MOLT-4 = tested on: MOLT-4
OVCAR-4 = tested on: OVCAR-4
SF-268 = tested on: SF-268
SF-295 = tested on: SF-295
SK-MEL-5 = tested on: SK-MEL-5
SNB-19 = tested on: SNB-19
TK-10 = tested on: TK-10
U-251 = tested on: U-251
UACC-257 = tested on: UACC-257
UACC-62 = tested on: UACC-62
MDA-MB-435 = tested on: MDA-MB-435
PC-3 = tested on: PC-3

Row | SMILES | GI50 (A498) | GI50 (CCRF-CEM) | GI50 (COLO 205) | GI50 (EKVX) | GI50 (HL-60) | GI50 (K562) | GI50 (KM12) | GI50 (MOLT-4) | GI50 (OVCAR-4) | GI50 (SF-268) | GI50 (SF-295) | GI50 (SK-MEL-5) | GI50 (SNB-19) | GI50 (TK-10) | GI50 (U-251) | GI50 (UACC-257) | GI50 (UACC-62) | GI50 (MDA-MB-435) | GI50 (PC-3)
1 | N#CC(C(=O)/C(=N/N)C(C#N)c1ccc(Cl)cc1)c1ccc(Cl)cc1 (stereo not given) | > 100 µM (inactive) | > 100 µM (inactive) | > 100 µM (inactive) | > 100 µM (inactive) | > 100 µM (inactive) | > 100 µM (inactive) | > 100 µM (inactive) | > 100 µM (inactive) | > 100 µM (inactive) | > 100 µM (inactive) | > 100 µM (inactive) | > 100 µM (inactive) | > 100 µM (inactive) | > 100 µM (inactive) | > 100 µM (inactive) | > 100 µM (inactive) | > 100 µM (inactive) |  | 
2 | CC(=O)/C(=C/NC(=S)c1ccncc1)C(=O)Nc1ccccc1C | > 100 µM (inactive) |  | > 100 µM (inactive) | > 100 µM (inactive) | > 100 µM (inactive) |  | > 100 µM (inactive) |  | > 100 µM (inactive) | > 100 µM (inactive) | > 100 µM (inactive) | > 100 µM (inactive) | > 100 µM (inactive) | > 100 µM (inactive) | > 100 µM (inactive) | > 100 µM (inactive) | > 100 µM (inactive) | > 100 µM (inactive) | 
3 | CCOC(=N)CC(=O)c1ccccc1 | > 100 µM (inactive) | > 100 µM (inactive) | > 100 µM (inactive) | > 100 µM (inactive) | > 100 µM (inactive) | > 100 µM (inactive) | > 100 µM (inactive) | > 100 µM (inactive) | > 100 µM (inactive) | > 100 µM (inactive) | > 100 µM (inactive) | > 100 µM (inactive) | > 100 µM (inactive) | > 100 µM (inactive) | > 100 µM (inactive) | > 100 µM (inactive) | > 100 µM (inactive) |  | 
4 | CCN(CC)CCCNc1nc(=O)[nH]c(C)c1C(=O)Nc1ccc2c(c1)c1ccccc1n2CC |  | > 100 µM (inactive) | > 100 µM (inactive) | > 100 µM (inactive) | > 100 µM (inactive) | > 100 µM (inactive) | > 100 µM (inactive) | > 100 µM (inactive) | > 100 µM (inactive) |  | > 100 µM (inactive) | > 100 µM (inactive) | > 100 µM (inactive) | > 100 µM (inactive) | > 100 µM (inactive) | > 100 µM (inactive) | > 100 µM (inactive) | > 100 µM (inactive) | > 100 µM (inactive)
5 | COc1cc([C@@H]2c3cc4c(cc3[C@@H](NC(=O)c3ccc(N)cc3)C3COC(=O)[C@@H]32)OCO4)cc(OC)c1O (stereo not given in full) | 1.64 µM (inactive) | 0.292 µM (active) | 10.8 µM (inactive) | 3.62 µM (inactive) | 0.207 µM (active) | 3.52 µM (inactive) | 2.65 µM (inactive) | 0.0375 µM (active) | 93.8 µM (inactive) | 2.41 µM (inactive) | 1.98 µM (inactive) | 2.81 µM (inactive) | 1.34 µM (inactive) | 9.68 µM (inactive) | 0.362 µM (active) | 9.16 µM (inactive) | 1.19 µM (inactive) |  | 
6 | COc1ccc(/N=N/c2c(-c3ccccc3)nn(C(=O)CC(=O)Nc3ccccc3Cl)c2-c2ccccc2)cc1 | > 100 µM (inactive) | 30.8 µM (inactive) | > 100 µM (inactive) | > 100 µM (inactive) | 22.6 µM (inactive) | 30.7 µM (inactive) | 87.1 µM (inactive) | 3.42 µM (inactive) | 57 µM (inactive) | 82.8 µM (inactive) | > 100 µM (inactive) | > 100 µM (inactive) | > 100 µM (inactive) | 77.6 µM (inactive) | > 100 µM (inactive) | > 100 µM (inactive) | > 100 µM (inactive) |  | 
